Each structure is given as a SMILES string.

The record followed here is patent publication US4167405A, “Fertilizers for supplying plants with iron” (Bayer Aktiengesellschaft, priority 1977, dated 1979).

The test system of data set [1] is Chrysanthemum indicum (Variety: Yellow Delaware). Description: Combating iron deficiency/leaf uptake test. Format: in vivo. Here is the method: Test plant: Chrysanthemum indicum (Variety: Yellow Delaware)
Culture substrate: Mixture of polystyrene foam flock (Styromull) and potassium alginate in the volume ratio of 10:1
To prepare a suitable formulation of the active compound, the particular amount of active compound desired was dissolved in water.
Test plants were grown in a culture substrate of the composition indicated above, fertilization and watering being effected by adding, twice weekly, a mineral-iron-deficient nutrient solution according to Hoagland and Arnon (Circular 347, College of Agriculture, University of California, Berkeley 1950). […] After 2 days the plants were again sprayed with the active compound formulation in the same manner.
The evaluation took place when an average of 2 leaves had newly formed on the plants treated with an optimum amount of a water-soluble, commercially available iron fertilizer, in each case, the average number of newly formed leaves was determined on all test plants. Furthermore, the intensity of the green colour of newly formed leaves was rated and expressed as a numerical code.
In this, the figures denoted:
1=0% chlorotic (dark green)
9=100% chlorotic (corresponding to the untreated control plants)

Data set [2] can be described thus: Water solubility of the preparation. Format: physicochemical.
Where [3] appears, read: nutrient preparation in the spray liquor 0.03 %.
[4] abbreviates: nutrient preparation in the spray liquor 0.16 %.
The mark [5] stands for this setting: nutrient preparation in the spray liquor 0.78 %.
Setting [6] is: nutrient preparation in the spray liquor 0.13 %.
Where [7] appears, read: nutrient preparation in the spray liquor 0.62 %.
The mark [8] stands for this setting: nutrient preparation in the spray liquor 0.15 %.
Setting [9] is: nutrient preparation in the spray liquor 0.74 %.
The mark [10] stands for this setting: nutrient preparation in the spray liquor 0.14 %.
Setting [11] is: nutrient preparation in the spray liquor 0.66 %.
The mark [12] stands for this setting: nutrient preparation in the spray liquor 0.12 %.
[13] abbreviates: nutrient preparation in the spray liquor 0.59 %.

On to `CCCCCCCCCC(=O)[c-]1cccc1.[Fe+2].c1cc[cH-]c1` [Example 2, n-decanoyl-ferrocene], for which the results for the “Average number of newly formed leaves” value in data set [1] (setting [3]), in data set [1] (setting [4]) and in data set [1] (setting [5]) were 4, 5 and 5, respectively. The figures for the “Intensity of the green colour of young leaves” value (from here on “Intensity”) in data set [1] (setting [3]), in data set [1] (setting [4]) and in data set [1] (setting [5]) were 3 (25% chlorotic), 2-3 and 2, respectively. The “Water solubility of the preparation” value in data set [2] is “slight”.

Consider `CCCCCC(=O)[c-]1cccc1.[Fe+2].c1cc[cH-]c1` [Example 4, n-hexanoylferrocene], for which, in data set [1] (setting [6]), the “Average number of newly formed leaves” value amounted to 3 and the “Intensity” value was 3 (25% chlorotic). In data set [1] (setting [7]), the “Average number of newly formed leaves” value stood at 3 and the “Intensity” value is 2-3. The “Water solubility of the preparation” value in data set [2] is “slight”.

Consider `CCCCCCCCC(=O)[c-]1cccc1.[Fe+2].c1cc[cH-]c1` [Example 7, n-nonaoylferrocene], for which the “Average number of newly formed leaves” value in data set [1] (setting [3]) is 4; in data set [1] (setting [8]), 5; in data set [1] (setting [9]), 5. Also, the “Intensity” value in data set [1] (setting [3]) is reported as 3 (25% chlorotic); in data set [1] (setting [8]), 2-3; in data set [1] (setting [9]) it was 2. Also, in data set [2], the “Water solubility of the preparation” value was “slight”.

For the compound `CCCCCCCC(=O)[c-]1cccc1.[Fe+2].c1cc[cH-]c1` [Example 6, n-octanoylferrocene], the figures for the “Average number of newly formed leaves” value in data set [1] (setting [3]) and in data set [1] (setting [10]) were 4 and 5, respectively. For the same compound, the entries for the “Intensity” value in data set [1] (setting [3]) and in data set [1] (setting [10]) were 3 (25% chlorotic) and 2-3, respectively. Further, the “Water solubility of the preparation” value in data set [2] was “slight”.

For the compound `CCCCCCC(=O)[c-]1cccc1.[Fe+2].c1cc[cH-]c1` [Example 5, n-heptanoylferrocene], the “Average number of newly formed leaves” value in data set [1] (setting [6]) and in data set [1] (setting [11]) was 4 in each case. For the same compound, the “Intensity” value was 3 (25% chlorotic) in data set [1] (setting [6]) and 2-3 in data set [1] (setting [11]). The “Water solubility of the preparation” value in data set [2] is recorded as “slight”.

`CCCCC(=O)[c-]1cccc1.[Fe+2].c1cc[cH-]c1` [Example 3, n-pentanoylferrocene]: in data set [1] (setting [12]), the “Average number of newly formed leaves” value amounted to 4 and the “Intensity” value is recorded as 2-3. In addition, in data set [1] (setting [13]), the “Average number of newly formed leaves” value worked out at 4 and the “Intensity” value came out at 2. The “Water solubility of the preparation” value in data set [2] was “slight”.
